Laboratory results reported in patent US11999727B2 (Tango Therapeutics, Inc., priority 2020, dated 2024).
Like-named read-outs stand apart in the source and are kept apart here.

Legend:
PRMT5 [1] = target: T1, PRMT5 (Homo sapiens, UniProt O14744); assay: PRMT5 biochemical IC50 assay with MTA as cofactor; conditions: PRMT5, MTA as cofactor; read-out: MTA IC50
T1 construct: purchased Viva (custom protein)

PRMT5 [2] = target: T1, PRMT5; assay: PRMT5 biochemical IC50 assay with SAM as cofactor; conditions: PRMT5, SAM as cofactor; read-out: SAM IC50
[3] = system: HAP1 MTAP-deleted cell line; assay: Viability assay, MTAP-deleted cell line; type: cell-based; conditions: read-out: HAP1 MTAP deleted viability
Description: Table 1 additionally indicates IC50 values in a viability assay for the MTAP-deleted cell line (column 10), indicating the effect of treatment with compound on cell survival.

PRMT5 [4] = target: T1, PRMT5; assay: PRMT5 biochemical IC50 assay with no cofactor; conditions: PRMT5, no cofactor
Description: Table 1 indicates IC50 values (μM) against PRMT5 for exemplary compounds in the presence of SAM as cofactor, with no cofactor, and with MTA as cofactor, respectively (columns 4-6). […] Ki values can be calculated from the IC50 values as described in the Examples section. As detailed in the Examples section, for the assay performed in the presence of SAM, IC50=Ki×1.5 (Ki=IC50/1.5).

[5] = Homo sapiens, HAP1, viability assay, MTAP-deleted cell line
[6] = Homo sapiens, HAP1, viability assay, HAP1 MTAP-deleted
[7] = read-out: No Cofactor/ rel IC50

T1 sequence (O14744 whole entry): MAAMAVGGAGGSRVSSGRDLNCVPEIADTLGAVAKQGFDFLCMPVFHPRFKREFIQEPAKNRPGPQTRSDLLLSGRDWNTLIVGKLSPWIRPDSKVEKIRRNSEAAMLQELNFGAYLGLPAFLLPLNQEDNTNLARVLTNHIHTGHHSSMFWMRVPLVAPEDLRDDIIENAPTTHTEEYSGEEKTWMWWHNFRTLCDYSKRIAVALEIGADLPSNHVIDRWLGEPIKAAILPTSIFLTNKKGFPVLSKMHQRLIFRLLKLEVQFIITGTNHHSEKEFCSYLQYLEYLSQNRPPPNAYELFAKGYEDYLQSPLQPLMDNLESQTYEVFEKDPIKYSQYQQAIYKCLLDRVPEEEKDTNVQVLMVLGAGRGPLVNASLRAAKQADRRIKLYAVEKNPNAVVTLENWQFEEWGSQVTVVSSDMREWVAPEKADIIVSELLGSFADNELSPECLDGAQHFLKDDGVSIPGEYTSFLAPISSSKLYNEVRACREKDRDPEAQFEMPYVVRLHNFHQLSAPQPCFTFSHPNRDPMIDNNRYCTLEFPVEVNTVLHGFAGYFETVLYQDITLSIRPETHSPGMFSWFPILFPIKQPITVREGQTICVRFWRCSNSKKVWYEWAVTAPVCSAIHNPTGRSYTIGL
T1 sequence (Q9BQA1 whole entry partner): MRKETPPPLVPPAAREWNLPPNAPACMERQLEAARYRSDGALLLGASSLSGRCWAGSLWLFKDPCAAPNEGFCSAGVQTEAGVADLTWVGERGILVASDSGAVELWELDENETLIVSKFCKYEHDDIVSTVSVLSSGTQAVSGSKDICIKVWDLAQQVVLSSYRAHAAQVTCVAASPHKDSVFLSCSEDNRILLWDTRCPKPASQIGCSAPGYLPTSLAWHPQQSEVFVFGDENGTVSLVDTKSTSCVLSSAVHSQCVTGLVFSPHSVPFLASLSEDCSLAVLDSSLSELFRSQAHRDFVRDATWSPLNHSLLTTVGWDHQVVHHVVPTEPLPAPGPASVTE

Structure (SMILES)	IC50 (PRMT5 [1]) [nM]	IC50 (PRMT5 [2]) [nM]	IC50 (PRMT5 [4]; read-out: No Cofactor/rel IC50) [nM]	IC50 (PRMT5 [4]; [7]) [nM]	IC50 ([3]; viability assay, MTAP-deleted cell line) [nM]	IC50 [3, 5] [nM]	IC50 [3, 6] [nM]	IC50 ([3]; Homo sapiens, HAP1, viability IC50, MTAP-deleted cell line) [nM]
NC(=O)c1cncc(NC(=O)C(=O)N2CC[C@@]3(O)CCCC[C@H]3C2)c1 (racemic) [Compound 421, 5-[2-(4a-Hydroxy-decahydroisoquinolin-2-yl)-2-oxoacetamido]pyridine-3-carboxamide]	50 to 500	> 500	> 500			> 10000		
C[C@H]1CC[C@H](c2ccc3sc(N)nc3c2)N(C(=O)C(=O)Nc2cncc(C(N)=O)c2)C1 (single isomer, unassigned) [Compound 987]	< 50	50 to 500	50 to 500			1000 to 10000		
Cc1cc(NC(=O)C(=O)N2C[C@H](C)CC[C@H]2C2CCNCC2)cnc1N (racemic) [Compound 708, N-(6-amino-5-methyl-3-pyridyl)-2-[(2R,5S)-5-methyl-2-(4-piperidyl)-1-piperidyl]-2-oxo-acetamide]	> 500	> 500	> 500				> 10000	
Cc1cc(NC(=O)C(=O)N2C[C@@H](C)C(F)(F)C[C@@H]2c2cccc3[nH]ncc23)cnc1N (single isomer, unassigned) [Compound 1034]	> 500	> 500	> 500			> 10000		
CNc1ccc([C@H]2CC[C@H](C)CN2C(=O)C(=O)Nc2cncc(C(N)=O)c2)cn1 (single isomer, unassigned) [Compound 444]	> 500	> 500	> 500			> 10000		
Cc1cc(NC(=O)C(=O)N2C[C@H](C)CC[C@H]2c2cccc3[nH]ccc23)cnc1N (single isomer, unassigned) [Compound 1035]	< 50	50 to 500	50 to 500			< 1000		
CNc1cccc([C@H]2CC[C@H](C)CN2C(=O)C(=O)Nc2cnc(N)c(C)c2)c1 (single isomer, unassigned) [Compound 450]	> 500	> 500	> 500			> 10000		
NC(=O)c1cncc(NC(=O)C(=O)N2CCCCC2C2CCCC2O)c1 (stereo not drawn) [Compound 169, 5-{2-[2-(2-Hydroxycyclopentyl)piperidin-1-yl]-2-oxoacetamido}pyridine-3-carboxamide]	50 to 500	50 to 500		> 500		> 10000		
Cn1nccc1C1CCCCN1C(=O)C(=O)Nc1cncc(C(N)=O)c1 (single isomer, unassigned) [Compound 59]	50 to 500	> 500		> 500		> 10000		
Cc1cc(NC(=O)C(=O)N2C[C@H](C)CC[C@H]2c2ccc3c(cnn3C)c2)cnc1N (racemic) [Compound 922]	< 50	50 to 500	50 to 500			< 1000		
Cc1cc(NC(=O)C(=O)N2C[C@@H](C)[C@@H](C)C[C@H]2c2ccccc2)cnc1N (single isomer, unassigned) [Compound 304]	50 to 500	50 to 500	50 to 500			> 10000		
C[C@@H]1CC[C@@H](c2cc(Cl)cc(C(F)(F)F)c2)N(C(=O)C(=O)Nc2cncc(C(N)=O)c2)C1 (single isomer, unassigned) [Compound 653]	> 500	> 500	> 500					

Further lines, with some results ahead:

IC50 (PRMT5 [1]) [nM]	IC50 (PRMT5 [2]) [nM]	IC50 (PRMT5 [4]; read-out: No Cofactor/rel IC50) [nM]	IC50 (PRMT5 [4]; [7]) [nM]	Structure (SMILES)	IC50 ([3]; viability assay, MTAP-deleted cell line) [nM]	IC50 [3, 5] [nM]	IC50 [3, 6] [nM]	IC50 ([3]; Homo sapiens, HAP1, viability IC50, MTAP-deleted cell line) [nM]
> 500	> 500	> 500		COc1ncc(NC(=O)C(=O)N2CCCCC2C2CCCC2)cc1C(N)=O (single isomer, unassigned) [Compound 289, 5-(2-(2-cyclopentylpiperidin-1-yl)-2-oxoacetamido)-2-methoxynicotinamide]	> 10000			
> 500	> 500	> 500		Cc1cc(NC(=O)C(=O)N2C[C@H](C)CC[C@H]2c2cc(F)cc(F)c2)cnc1N (single isomer, unassigned) [Compound 712, N-(6-amino-5-methylpyridin-3-yl)-2-(2-(3,5-difluorophenyl)-5-methylpiperidin-1-yl)-2-oxoacetamide]			> 10000	
> 500	> 500	> 500		COc1ncc(NC(=O)C(=O)N2C[C@@H](C)CC[C@@H]2C2CCCC2)cc1C(N)=O (single isomer, unassigned) [Compound 298]		> 10000		
> 500	> 500	> 500		CNc1ccc([C@@H]2CC[C@@H](C)CN2C(=O)C(=O)Nc2cncc(C(N)=O)c2)cc1 (single isomer, unassigned) [Compound 424]		> 10000		
< 50	< 50	< 50		Cc1cc(NC(=O)C(=O)N2C[C@H](C)CC[C@H]2c2ccc3cc[nH]c(=O)c3c2)cnc1N (single isomer, unassigned) [Compound 1031]		< 1000		
50 to 500	> 500	> 500		COc1ncc(NC(=O)C(=O)N2C[C@H](C)CC[C@@H]2C2CCCCC2)cc1C(N)=O (single isomer, unassigned) [Compound 389]		> 10000		
50 to 500	> 500	> 500		Cc1cc(NC(=O)C(=O)N2C[C@H](C)CC[C@H]2c2cc(Cl)cc(C(F)(F)F)c2)cnc1N (single isomer, unassigned) [Compound 679]				> 10000
50 to 500	50 to 500	50 to 500		C[C@H]1CC[C@H](c2ccc(N[C@H](C)C(=O)N(C)C)cc2)N(C(=O)C(=O)Nc2cncc(C(N)=O)c2)C1 (racemic) [Compound 414, 5-[[2-[(2R,5S)-2-[4-[[(1R)-2-(Dimethylamino)-1-methyl-2-oxo-ethyl]amino]phenyl]-5-methyl-1-piperidyl]-2-oxo-acetyl]amino]pyridine-3-carboxamide]		> 10000		
> 500	> 500	> 500		CC(=O)Nc1ccc([C@H]2CC[C@H](C)CN2C(=O)C(=O)Nc2cncc(C(N)=O)c2)cn1 (single isomer, unassigned) [Compound 905]		> 10000		
50 to 500	50 to 500	50 to 500		CC(=O)NCc1ccc([C@@H]2CC[C@@H](C)CN2C(=O)C(=O)Nc2cnc(N)c(C)c2)cc1 (racemic) [Compound 1036, rac-2-[(2R,5S)-2-[4-(Acetamidomethyl)phenyl]-5-methyl-1-piperidyl]-N-(6-amino-5-methyl-3-pyridyl)-2-oxo-acetamide]		1000 to 10000		
50 to 500	> 500	> 500		NC(=O)CC1CCC2CN(C(=O)C(=O)Nc3cncc(C(N)=O)c3)CCC2C1 (stereo not drawn) [Compound 420, 5-{2-[6-(Carbamoylmethyl)-decahydroisoquinolin-2-yl]-2-oxoacetamido}pyridine-3-carboxamide]		> 10000		
> 500	> 500	> 500		Cc1cc(NC(=O)C(=O)N2C[C@@H](C)CC[C@@H]2c2ccc3cc[nH]c(=O)c3c2)cnc1N (single isomer, unassigned) [Compound 1021]		> 10000		
50 to 500	> 500	> 500		C[C@@H]1CCC[C@H](c2ccccc2)N1C(=O)C(=O)Nc1cncc(C(N)=O)c1 (single isomer, unassigned) [Compound 278]		> 10000		
